Data from PubChem BioAssay AID743073 (Broad Institute, 2013).
pIC50: −log10 of the molar value. Calls of active or inactive are those of the source. The rule behind the calls is not given here.

Test system: M. tuberculosis BioA-TetON overexpression strain, growth inhibition
Assay: PubChem AID 743073
Conditions: for IC90: IC90 growth inhibition

SMILES	pIC50	IC90	IC50
O=C(O)CC/C(=C\c1ccc([N+](=O)[O-])cc1)c1nc2ccccc2s1	5.08	34.3 µM	
CC(=O)c1ccc(N2CCN(C(=O)c3ccc(Br)cc3)CC2)c(F)c1		> 50 µM	> 50 µM (inactive)
COc1ccc(N2CCN(C(=O)c3ccc4c(c3)OCO4)CC2)cc1	4.75	> 50 µM	
Cc1ccc(/C=C(\CC(=O)O)c2nc3ccccc3s2)cc1[N+](=O)[O-]	4.93	> 50 µM	
COc1ccc(C(=O)N2CCN(c3ccc(C(C)=O)cc3)CC2)cc1		> 50 µM	> 50 µM (inactive)
O=C(Nc1ccc2snnc2c1)N1CCN(c2ccccc2)CC1		> 50 µM	> 50 µM (inactive)
CC(=O)c1ccc(N2CCN(C(=O)c3ccc(F)cc3)CC2)cc1		> 50 µM	> 50 µM (inactive)
O=C(Nc1cccc(Cl)c1)N1CCN(c2ccccc2)CC1	4.60	> 50 µM	
CC(=O)c1ccc(N2CCN(C(=O)c3cccc(Cl)c3)CC2)cc1		> 50 µM	44.3 µM (inactive)
COc1cccc(C(=O)N2CCN(c3ccc(C(C)=O)cc3)CC2)c1		> 50 µM	> 50 µM (inactive)
Cc1ccc(/C=C(\CCC(=O)O)c2nc3ccccc3s2)cc1[N+](=O)[O-]	5.82	4.7 µM	
O=C(Nc1ccc2snnc2c1)N1CCOCC1		> 50 µM	> 50 µM (inactive)
Cc1cc(C)n2nc(C(=O)Nc3cccnc3)cc2n1		> 50 µM	> 50 µM (inactive)
CC(=O)c1ccc(N2CCN(C(=O)c3ccc4c(c3)OCCO4)CC2)cc1		> 50 µM	> 50 µM (inactive)
CC(=O)c1ccc(N2CCN(C(=O)c3ccc4c(c3)OCO4)CC2)cc1		> 50 µM	52 µM (inactive)
Cc1ccc(/C=C(\CCC(=O)O)c2nc3ccccc3s2)cc1	5.77	5.8 µM	
COc1ccc(NC(=O)N2CCN(c3ccccc3)CC2)cc1		> 50 µM	> 50 µM (inactive)
CC(C)(C)c1ccc(C(=O)N2CCN(c3ccc4c(c3)OCO4)CC2)cc1	4.88	36.9 µM	
CC(=O)c1ccc(N2CCN(C(=O)c3ccc4ncsc4c3)CC2)cc1		> 50 µM	> 50 µM (inactive)
O=C(c1ccc2c(c1)OCO2)N1CCN(c2ccc(F)cc2)CC1	4.55	> 50 µM	

SMILES	pIC50	IC90	IC50
O=C(c1ccc2c(c1)OCO2)N1CCN(c2ccccc2)CC1	4.61	> 50 µM	
CC(=O)c1ccc(N2CCN(Cc3ccc4c(c3)OCO4)CC2)cc1		> 50 µM	> 50 µM (inactive)
Cc1ccc(NC(=O)N2CCN(c3ccccc3)CC2)cc1	4.30	> 50 µM	
O=C(Nc1cccnc1)N1CCN(c2ccccc2)CC1		> 50 µM	> 50 µM (inactive)
COC(=O)c1c(C(=O)OC)c(-c2cccc(F)c2)n2c1CS(=O)C2 (stereo not given)		> 50 µM	> 50 µM (inactive)
CCc1ccc(C(=O)N2CCN(Cc3ccc4c(c3)OCO4)CC2)cc1	4.95	47.2 µM	
O=C(c1ccc2c(c1)OCO2)N1CCN(c2ccc(Cl)cc2)CC1	4.94	47.2 µM	
O=C(Nc1cccnc1)c1cc2nc(-c3cccs3)cc(C(F)(F)F)n2n1		> 50 µM	> 50 µM (inactive)
COc1cc(/C=C/C(=O)Nc2cccnc2)cc(OC)c1OC		> 50 µM	> 50 µM (inactive)
Cc1ccc(/C=C(\CCCC(=O)O)c2nc3ccccc3s2)cc1[N+](=O)[O-]	5.25	> 50 µM	
O=C(Nc1ccccc1)N1CCN(c2ccccc2)CC1	5.00	> 50 µM	
CC(=O)c1ccc(N2CCN(C(=O)c3cccc(F)c3)CC2)cc1		> 50 µM	> 50 µM (inactive)
O=C(Nc1ccc(F)cc1)N1CCN(c2ccccc2)CC1	4.71	> 50 µM	
Cc1cc(C)n2nc(C(=O)Nc3cccnc3)nc2n1		> 50 µM	> 50 µM (inactive)
O=C(Nc1cccc(F)c1)N1CCN(c2ccccc2)CC1	4.89	> 50 µM	
O=C(c1ccc2c(c1)OCO2)N1CCN(Cc2ccccc2)CC1		> 50 µM	> 50 µM (inactive)
CC(=O)c1ccc(N2CCN(C(=O)c3ccccc3)CC2)cc1		> 50 µM	> 50 µM (inactive)
Cc1ccccc1/C=C(\CCC(=O)O)c1nc2ccccc2s1	5.19	43.5 µM	
COc1ccc(-c2cc(C(F)(F)F)n3nc(C(=O)Nc4cccnc4)cc3n2)cc1		> 50 µM	> 50 µM (inactive)
Cc1nc2cc(NC(=O)N3CCN(c4ccccc4)CC3)ccc2o1	4.30	> 50 µM	

SMILES	pIC50	IC90	IC50
Cc1ccc(-c2cc(C(F)(F)F)n3nc(C(=O)Nc4cccnc4)cc3n2)cc1		> 50 µM	> 50 µM (inactive)
CC(=O)c1ccc(N2CCN(C(=O)c3ccc(Cl)cc3)CC2)cc1		> 50 µM	> 50 µM (inactive)
COc1cccc(NC(=O)N2CCN(c3ccccc3)CC2)c1	4.30	> 50 µM	
CC(=O)c1ccc(N2CCN(C(=O)c3cccnc3)CC2)cc1		> 50 µM	> 50 µM (inactive)
O=C(Nc1ccc2snnc2c1)N1CCCCC1	4.30	> 50 µM	
COc1cccc(NC(=O)CCC2CCN(C(=O)c3ccc(C(C)=O)s3)CC2)c1		> 50 µM	> 50 µM (inactive)
O=C(Nc1ccc(Cl)c(-c2nc3ccccc3[nH]2)c1)c1cccnc1	4.99	39.5 µM	
O=C(Nc1ccc(Cl)cc1)c1cc2nc(C3CC3)cc(C(F)(F)F)n2n1		> 50 µM	> 50 µM (inactive)
CCN(CC)c1ccc2cc(C(=O)c3cccs3)c(=O)oc2c1	5.19	> 50 µM	
O=C(Nc1cccnc1)c1cnn2c(C(F)F)cc(C3CC3)nc12		> 50 µM	> 50 µM (inactive)
O=C(Nc1ccc2[nH]ccc2c1)N1CCN(c2ccccc2)CC1	5.15	> 50 µM	
Cc1cccc(/C=C(\CCC(=O)O)c2nc3ccccc3s2)c1	5.51	9 µM	
CC(=O)c1ccc(N2CCN(C(=O)c3ccc(C)cc3)CC2)cc1		> 50 µM	> 50 µM (inactive)
Cc1nc2ccc(NC(=O)N3CCN(c4ccccc4)CC3)cc2s1	5.55	23.6 µM	
CCc1ccc(N2CCN(C(=O)c3ccc4c(c3)OCO4)CC2)cc1	4.79	> 50 µM	
O=C(Nc1cccnc1)c1cnn2c(C(F)(F)F)cc(-c3ccccc3)nc12		> 50 µM	> 50 µM (inactive)
O=C(Nc1ccncc1)c1cc2nc(C3CC3)cc(C(F)F)n2n1		> 50 µM	> 50 µM (inactive)
CCOC(=O)N1CCN(C(=O)Nc2ccc3snnc3c2)CC1		> 50 µM	> 50 µM (inactive)
O=C(O)CC/C(=C\c1ccccc1[N+](=O)[O-])c1nc2ccccc2s1		> 50 µM	> 50 µM (inactive)
O=C(COc1ccc2ccc(=O)oc2c1)N1CCN(c2ccc(F)cc2)CC1		> 50 µM	> 50 µM (inactive)
